# How the values were obtained:
# [1] = Stability of the enamide in HDAC buffer at pH 2-12 (HPLC/LCMS); format: physicochemical; conditions: HDAC assay buffer, room temperature, 20 μM
# Experimental: HDAC buffer was adjusted to pH 2, 4, 6, 7, 8, 10 or 12 with […]. Compound 9 was dissolved in HDAC buffer at each pH to obtain 200 μL of a 20 μM solution. The solutions were kept at room temperature and 10 μL aliquots were analyzed at selected time points (t=0, 5, 10, 15, 30 and 60 minutes). Experiments were carried out in duplicate and the hydrolysis was monitored by HPLC and LCMS. HPLC measurements were made using a gradient elution system composed of water and acetonitrile with 0.01% ammonium formate at a flow rate of 1 mL/min on an Agilent Eclipse XDB-C18 chromatographic column (4.6 mm×150 mm). LCMS was performed with a gradient elution system composed of water and acetonitrile with 0.1% ammonium formate at a flow rate of 0.1 mL/min using an Agilent Eclipse XDB-C8 chromatographic column (5 μm particle size, 2.1 mm×150 mm).
# Bovine serum albumin = Bovine serum albumin (Bos taurus, UniProt P02769); assay: HP-1 deacetylation and protein binding assay (gel filtration, fluorescence)
# Chain of Bovine serum albumin (P02769 25-607): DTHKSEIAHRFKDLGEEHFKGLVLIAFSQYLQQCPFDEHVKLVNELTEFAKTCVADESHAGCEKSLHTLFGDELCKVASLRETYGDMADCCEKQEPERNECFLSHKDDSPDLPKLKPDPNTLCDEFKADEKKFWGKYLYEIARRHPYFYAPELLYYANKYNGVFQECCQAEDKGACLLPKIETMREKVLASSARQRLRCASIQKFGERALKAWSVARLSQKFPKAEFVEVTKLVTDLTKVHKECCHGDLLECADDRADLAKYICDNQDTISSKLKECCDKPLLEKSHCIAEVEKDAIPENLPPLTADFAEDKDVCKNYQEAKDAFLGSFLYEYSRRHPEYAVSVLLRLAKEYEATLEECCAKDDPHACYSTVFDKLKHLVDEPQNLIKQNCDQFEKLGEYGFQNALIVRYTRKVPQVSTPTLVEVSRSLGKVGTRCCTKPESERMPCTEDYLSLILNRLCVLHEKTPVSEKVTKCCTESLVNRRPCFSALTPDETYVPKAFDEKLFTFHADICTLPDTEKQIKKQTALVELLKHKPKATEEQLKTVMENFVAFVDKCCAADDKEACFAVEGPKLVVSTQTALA
# Experimental: Solutions containing HP-1 (20 μM) in 30 μL HDAC buffer with 5% DMSO were incubated at 37° C. for four hours in the presence or absence of HDAC3 (3.6 μM). After incubation with HDAC3, NaCNBH3 (1.4 mM) or vehicle (H2O) and BSA (6 mg/mL) or vehicle (HDAC buffer), were added to the solutions prior to an additional incubation at 37° C. for two hours (all reactions were run in triplicate). Following the second incubation, the final solutions (50 μL) were added to G-25 columns (GE Healthcare, Buckinghamshire, UK) pre-equilibrated with milliQ water. The columns were then centrifuged at 700×g for 60 seconds before addition of milliQ water (50 μL). […] 75 μL of each fraction was transferred to a well in a 96-well, black, clear-bottom plate (Corning Incorporated, Corning, N.Y.) and the fluorescence was detected using an IVIS Spectrum (Caliper, Hopkinton, Mass.). To obtain the fluorescence signals, the 465 nm excitation filter, 530 nm emission filter, and a 5 second exposure were used. For analysis, the total photon flux over the area of each well was determined.
# HP-1 deacetylation and protein binding assay. […] The fractions were transferred to a well in a 96-well, black, clear-bottom plate (Corning Incorporated, Corning, N.Y.) and the fluorescence was detected using an IVIS Spectrum (Caliper, Hopkinton, Mass.). […]
"conversion of the enamide to the aldehyde ([1]; pH 2, 60 min)","conversion of the enamide to the aldehyde ([1]; pH 4-12, 60 min)",Compound,"increase in protein-DHP-1 binding compared to controls (Bovine serum albumin; HP-1 (20 μM) incubated with HDAC3, then BSA with NaCNBH3 (Lanes F and H)) [fold]","increase in detected protein-DHP-1 binding relative to controls (Bovine serum albumin; HP-1 (20 μM) incubated with HDAC3, then BSA, no NaCNBH3 (lanes E and G)) [fold]"
full conversion,no detectable conversion,CC(=O)NC=CCCCCNC(=O)c1ccccc1 [Compound 9],–,–
–,–,O=CCCCCCNC(=O)CCCCCNc1ccc([N+](=O)[O-])c2nonc12 [DHP-1],5,2
